What follows are molecules tested against B-Raf (V600E)-kinase (Homo sapiens, UniProt P15056, V600E) (assay: Kinase test B-Raf (V600E)). Conditions: compound concentration 2 μM; 100% = no inhibition, 0% = total inhibition; read-out: % CTL (residual activity of the enzyme relative to DMSO control).
B-Raf (V600E)-kinase, sequence (P15056 whole entry V600E): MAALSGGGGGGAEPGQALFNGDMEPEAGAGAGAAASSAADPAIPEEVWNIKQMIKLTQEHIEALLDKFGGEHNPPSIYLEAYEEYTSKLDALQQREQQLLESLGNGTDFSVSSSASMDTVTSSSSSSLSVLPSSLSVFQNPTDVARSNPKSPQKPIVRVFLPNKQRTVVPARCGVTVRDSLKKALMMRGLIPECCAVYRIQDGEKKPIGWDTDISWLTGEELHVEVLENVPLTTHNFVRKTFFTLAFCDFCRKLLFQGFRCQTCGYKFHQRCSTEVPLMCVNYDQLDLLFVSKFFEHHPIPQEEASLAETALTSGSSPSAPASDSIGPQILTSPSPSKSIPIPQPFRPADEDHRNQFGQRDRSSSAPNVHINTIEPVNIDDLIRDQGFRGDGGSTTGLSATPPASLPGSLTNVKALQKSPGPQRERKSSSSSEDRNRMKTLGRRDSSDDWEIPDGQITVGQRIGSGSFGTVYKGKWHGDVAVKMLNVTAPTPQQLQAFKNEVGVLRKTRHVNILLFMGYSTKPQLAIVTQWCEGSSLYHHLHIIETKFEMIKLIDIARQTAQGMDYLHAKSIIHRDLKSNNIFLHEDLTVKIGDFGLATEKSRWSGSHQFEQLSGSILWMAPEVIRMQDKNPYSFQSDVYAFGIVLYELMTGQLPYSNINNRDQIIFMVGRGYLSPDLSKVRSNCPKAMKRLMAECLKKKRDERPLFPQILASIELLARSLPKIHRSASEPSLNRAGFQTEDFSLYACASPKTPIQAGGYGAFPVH
Assay type: biochemical
Outline: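 Kinase preincubated with compound (typically 2 μM to 0.119 nM or 0.017 nM, 5% DMSO) 1 h at RT, then reacted 60 min at RT with 250 μM ATP and biotinylated MEK1. Phospho-MEK (Ser217/221) captured on streptavidin, detected by europium time-resolved fluorescence; IC50 from dose-response curves.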
Work on `Cc1ncc(NC(=O)c2cc(OC(F)(F)F)cc(N3CCOCC3)c2)cc1-n1cc(-c2cnn(C)c2C)nn1` [XII-25] yielded a remaining activity at 2 µM of 3.9%.
`Cc1ncc(NC(=O)c2cc(OC(F)(F)F)cc(N3CCN(C)CC3)c2)cc1-n1cc(-c2cncnc2)nn1` [XII-26] was tested, and the remaining activity at 2 µM was 2.2%.
Molecule `Cc1ncc(NC(=O)c2cc(OC(F)(F)F)cc(N3CCN(C)CC3)c2)cc1-n1cc(-c2cncc(C#N)c2)nn1` [XII-27] has a remaining activity at 2 µM of 2.4%.
In the case of `Cc1ncc(NC(=O)c2cc(OC(F)(F)F)cc(N(C)C3CCN(C)C3)c2)cc1-n1cc(-c2cnn(C)c2C)nn1` (centres unmarked) [XII-28], the remaining activity at 2 µM is reported as 2%.
In the case of `Cc1ncc(NC(=O)c2cc(OC(F)(F)F)cc(N3CCC(N(C)C)C3)c2)cc1-n1cc(-c2cnn(C)c2C)nn1` (centres unmarked) [XII-29], the remaining activity at 2 µM is reported as 1.6%.
For `Cc1ncc(NC(=O)c2cc(OC(F)(F)F)cc(C3=CCNCC3)c2)cc1-n1cc(-c2cnn(C)c2C)nn1` [XII-30], the remaining activity at 2 µM was 1.8%.
With `COCCCN1CCN(c2cncc(-c3cn(-c4cc(NC(=O)c5cc(C(F)(F)F)ccn5)cnc4C)nn3)c2)CC1` [XII-31] the remaining activity at 2 µM was 1.9%.
In the case of `Cc1ncc(NC(=O)c2cc(C(F)(F)F)ccn2)cc1-n1cc(-c2cncc(N3CCN(C(C)(C)C)CC3)c2)nn1` [XII-32], the remaining activity at 2 µM is reported as 2.9%.
Work on `CCOCCN1CCN(c2cncc(-c3cn(-c4cc(NC(=O)c5cc(C(F)(F)F)ccn5)cnc4C)nn3)c2)CC1` [XII-33] yielded a remaining activity at 2 µM of 1.7%.
In the case of `Cc1ncc(NC(=O)c2cccc(C(C)(C)C#N)c2)cc1-n1cc(-c2cncc(N3CCN(C)CC3)c2)nn1` [XII-34], the remaining activity at 2 µM is reported as 0.8%.
Molecule `Cc1ncc(NC(=O)c2cc(C(F)(F)F)ccn2)cc1-n1cc(-c2cncc(N3CCN(C(C)C)CC3)c2)nn1` [XII-35] has a remaining activity at 2 µM of 1.7%.
Work on `Cc1ncc(NC(=O)c2cccc(OC(F)(F)F)c2)cc1-n1cc(-c2cncc(N3CCN(C)CC3)c2)nn1` [XII-36] yielded a remaining activity at 2 µM of 1.3%.
`Cc1ncc(NC(=O)c2cc(C(F)(F)F)ccn2)cc1-n1cc(-c2cncc(N3CCN(CC(C)C)CC3)c2)nn1` [XII-37] showed a remaining activity at 2 µM of 2.3%.
In the case of `CCN1CCN(c2cncc(-c3cn(-c4cc(NC(=O)c5cc(C(F)(F)F)ccn5)cnc4C)nn3)c2)CC1` [XII-38], the remaining activity at 2 µM is reported as 2.1%.
With `CCN1CCN(c2cncc(-c3cn(-c4cc(NC(=O)c5ccc(OC)c(C(F)(F)F)c5)cnc4C)nn3)c2)CC1` [XII-39] the remaining activity at 2 µM was 2.5%.
Molecule `CCCN1CCN(c2cncc(-c3cn(-c4cc(NC(=O)c5cc(C(F)(F)F)ccn5)cnc4C)nn3)c2)CC1` [XII-41] has a remaining activity at 2 µM of 3.1%.
`Cc1ncc(NC(=O)c2cccc(OC(F)(F)F)c2)cc1-n1cc(-c2cncc(N3CCN(C(C)C)CC3)c2)nn1` [XII-42] gave a remaining activity at 2 µM of 4.3%.
With `COc1ccc(C(=O)Nc2cnc(C)c(-n3cc(-c4cncc(N5CCN(C(C)C)CC5)c4)nn3)c2)cc1C(F)(F)F` [XII-43] the remaining activity at 2 µM was 2.1%.
`CCOCCN1CCN(c2cncc(-c3cn(-c4cc(NC(=O)c5ccc(OC)c(C(F)(F)F)c5)cnc4C)nn3)c2)CC1` [XII-44] gave a remaining activity at 2 µM of 1.9%.
With `COc1ccc(C(=O)Nc2cnc(C)c(-n3cc(-c4cncc(N5CCN(C(C)(C)C)CC5)c4)nn3)c2)cc1C(F)(F)F` [XII-45] the remaining activity at 2 µM was 2.9%.
`COCCCN1CCN(c2cncc(-c3cn(-c4cc(NC(=O)c5ccc(OC)c(C(F)(F)F)c5)cnc4C)nn3)c2)CC1` [XII-46] showed a remaining activity at 2 µM of 1.8%.
In the case of `Cc1ncc(NC(=O)c2cccc(OC(F)(F)F)c2)cc1-n1cc(-c2cncc(N3CCN(C(C)(C)C)CC3)c2)nn1` [XII-47], the remaining activity at 2 µM is reported as 4%.
`COCCCN1CCN(c2cncc(-c3cn(-c4cc(NC(=O)c5cccc(OC(F)(F)F)c5)cnc4C)nn3)c2)CC1` [XII-48] gave a remaining activity at 2 µM of 2.4%.
For `Cc1ncc(NC(=O)c2cccc(C(C)(C)C#N)c2)cc1-n1cc(-c2cncc(N3CCN(CC4CC4)CC3)c2)nn1` [XII-49], the remaining activity at 2 µM was 2.3%.
Work on `Cc1ncc(NC(=O)c2cccc(C(C)(C)C#N)c2)cc1-n1cc(-c2cncc(N3CCN(C(C)C)CC3)c2)nn1` [XII-50] yielded a remaining activity at 2 µM of 6.8%.
With `CCN1CCN(c2cncc(-c3cn(-c4cc(NC(=O)c5cccc(C(C)(C)C#N)c5)cnc4C)nn3)c2)CC1` [XII-51] the remaining activity at 2 µM was 2.3%.
For `Cc1ncc(NC(=O)c2cccc(C(C)(C)C#N)c2)cc1-n1cc(-c2cncc(NCCN(C)C)c2)nn1` [XII-52], the remaining activity at 2 µM was 7%.
For `Cc1ncc(NC(=O)c2cccc(C(C)(C)C#N)c2)cc1-n1cc(-c2cncc(N(C)CCN(C)C)c2)nn1` [XII-53], the remaining activity at 2 µM was 7%.
With `CCOCCN1CCN(c2cncc(-c3cn(-c4cc(NC(=O)c5cccc(OC(F)(F)F)c5)cnc4C)nn3)c2)CC1` [XII-54] the remaining activity at 2 µM was 10.8%.
Molecule `CCN1CCN(c2cncc(-c3cn(-c4cc(NC(=O)c5cccc(OC(F)(F)F)c5)cnc4C)nn3)c2)CC1` [XII-55] has a remaining activity at 2 µM of 1.8%.
`Cc1ncc(NC(=O)c2cc(C(F)(F)F)ccn2)cc1-n1cc(-c2cncc(N3CCN(C)CC3)c2)nn1` [XII-57] was tested, and the remaining activity at 2 µM was 0.9%.
In the case of `Cc1ncc(NC(=O)c2cccc(C(C)(C)C#N)c2)cc1-n1cc(-c2cncc(CO)c2)nn1` [XII-63], the remaining activity at 2 µM is reported as 3.8%.
Work on `Cc1ncc(NC(=O)c2cccc(C(C)(C)C#N)c2)cc1-n1cc(-c2cncc(CN(C)C)c2)nn1` [XII-64] yielded a remaining activity at 2 µM of 0.9%.
Molecule `Cc1ncc(NC(=O)c2cccc(C(C)(C)C#N)c2)cc1-n1cc(-c2cncc(CN3CCCC3)c2)nn1` [XII-65] has a remaining activity at 2 µM of 0.9%.

Same assay, conditions: measurement at 0.29 μM (*); 100% = no inhibition, 0% = total inhibition; read-out: % CTL (residual activity of the enzyme relative to DMSO control)
In the case of `COc1ccc(C(=O)Nc2cnc(C)c(-n3cc(-c4cncc(N5CCN(C)CC5)c4)nn3)c2)cc1C(F)(F)F` [XII-40], the remaining activity at 0.29 µM is reported as 3%.

From patent publication US8778929B2, “Substituted heteroaryl inhibitors of B-RAF” (Boehringer Ingelheim International GmbH, priority 2008, dated 2014)
